Calls of active or inactive are those of the source. No cut-off for these calls is given here.
How the values were obtained:
PANC-1 [1] = assay: Induction of apoptosis in human PANC-1 cells assessed as viable cells at 5 uM incubated for 48 hrs by Annexin V-FITC/PI staining based flow cytometry (reference value: 91.64 %); format: functional; details: read-out: Activity
[2] = Toxicity in BALB/c mouse xenografted with human PANC-1 cells assessed as pathological changes in liver at 40 mg/kg, ip for 4 weeks administered for 5 days consecutively and 2 days without treatment on every week by H and E staining based analysis; format: organism-based; details: in vivo, 672 h
PANC-1 [3] = assay: Induction of apoptosis in human PANC-1 cells assessed as late apoptotic cells at 10 uM incubated for 48 hrs by Annexin V-FITC/PI staining based flow cytometry (reference value: 3.87 %); format: functional
PANC-1 [4] = assay: Induction of apoptosis in human PANC-1 cells assessed as early apoptotic cells at 10 uM incubated for 48 hrs by Annexin V-FITC/PI staining based flow cytometry (reference value: 1.41 %); format: functional
PANC-1 [5] = assay: Induction of cell cycle arrest in human PANC-1 cells assessed as accumulation at G2 phase at 0.6 uM incubated for 24 hrs by PI staining based flow cytometry (reference value: 9.36 %); format: functional
PANC-1 [6] = assay: Induction of DNA damage in human PANC-1 cells assessed as increase in gamma-H2AX level at 2 uM in presence of JQ1 by Western blot analysis; format: functional, cell-based
PANC-1 [7] = assay: Induction of DNA damage in human PANC-1 cells assessed as decrease in BRCA1 level at 2 uM in presence of JQ1 by Western blot analysis; format: functional, cell-based
[8] = Toxicity in BALB/c mouse xenografted with human PANC-1 cells assessed as pathological changes in kidney at 40 mg/kg, ip for 4 weeks administered for 5 days consecutively and 2 days without treatment on every week in presence of JQ1 by H and E staining based analysis; format: organism-based; details: in vivo, 672 h
PANC-1 [9] = assay: Antitumor activity against human PANC-1 cells xenografted in BALB/c mouse assessed as reduction in tumor growth at 40 mg/kg, ip for 4 weeks administered for 5 days consecutively and 2 days without treatment on every week; format: functional, organism-based
[10] = target: Bromodomain-containing protein 4 (Homo sapiens) (UniProt O60885); assay: Inhibition of BRD4 in human PANC-1 cells at 2 uM incubated for 24 hrs in presence of JQ1 by immunofluorescence based analysis; format: cell-based
PANC-1 [11] = assay: Induction of apoptosis in human PANC-1 cells assessed as early apoptotic cells at 0.6 uM incubated for 48 hrs by Annexin V-FITC/PI staining based flow cytometry (reference value: 1.41 %); format: functional
PANC-1 [12] = assay: Induction of cell cycle arrest in human PANC-1 cells assessed as accumulation at G1 phase at 2 uM incubated for 24 hrs in presence of JQ1 by PI staining based flow cytometry (reference value: 51.70 %); format: functional
PANC-1 [13] = assay: Induction of apoptosis in human PANC-1 cells assessed as necrotic cells at 5 uM incubated for 48 hrs by Annexin V-FITC/PI staining based flow cytometry (reference value: 3.09 %); format: functional
PANC-1 [14] = assay: Induction of apoptosis in human PANC-1 cells assessed as early apoptotic cells at 1.2 uM incubated for 48 hrs by Annexin V-FITC/PI staining based flow cytometry (reference value: 1.41 %); format: functional
PANC-1 [15] = assay: Induction of apoptosis in human PANC-1 cells assessed as necrotic cells at 1.2 uM incubated for 48 hrs by Annexin V-FITC/PI staining based flow cytometry (reference value: 3.09 %); format: functional
PANC-1 [16] = assay: Induction of apoptosis in human PANC-1 cells assessed as necrotic cells at 0.6 uM incubated for 48 hrs by Annexin V-FITC/PI staining based flow cytometry (reference value: 3.09 %); format: functional
[17] = Toxicity in BALB/c mouse xenografted with human PANC-1 cells assessed as animal morbidity at 40 mg/kg, ip for 4 weeks administered for 5 days consecutively and 2 days without treatment on every week; format: organism-based; details: in vivo, 672 h
PANC-1 [18] = assay: Induction of cell cycle arrest in human PANC-1 cells assessed as accumulation at G2 phase at 2 uM incubated for 24 hrs in presence of JQ1 by PI staining based flow cytometry (reference value: 9.36 %); format: functional
[19] = Toxicity in BALB/c mouse xenografted with human PANC-1 cells assessed as pathological changes in kidney at 40 mg/kg, ip for 4 weeks administered for 5 days consecutively and 2 days without treatment on every week by H and E staining based analysis; format: organism-based; details: in vivo, 672 h
[20] = Toxicity in BALB/c mouse xenografted with human PANC-1 cells assessed as pathological changes in heart at 40 mg/kg, ip for 4 weeks administered for 5 days consecutively and 2 days without treatment on every week by H and E staining based analysis; format: organism-based; details: in vivo, 672 h
PANC-1 [21] = assay: Induction of apoptosis in human PANC-1 cells assessed as late apoptotic cells at 1.2 uM incubated for 48 hrs by Annexin V-FITC/PI staining based flow cytometry (reference value: 3.87 %); format: functional
PANC-1 [22] = assay: Induction of apoptosis in human PANC-1 cells assessed as early apoptotic cells at 2 uM incubated for 48 hrs in presence of JQ1 by Annexin V-FITC/PI staining based flow cytometry (reference value: 1.41 %); format: functional
[23] = Toxicity in BALB/c mouse xenografted with human PANC-1 cells assessed as pathological changes in spleen at 40 mg/kg, ip for 4 weeks administered for 5 days consecutively and 2 days without treatment on every week in presence of JQ1 by H and E staining based analysis; format: organism-based; details: in vivo, 672 h
PANC-1 [24] = assay: Induction of cell cycle arrest in human PANC-1 cells assessed as accumulation at G2 phase at 1.2 uM incubated for 24 hrs by PI staining based flow cytometry (reference value: 9.36 %); format: functional
PANC-1 [25] = assay: Induction of apoptosis in human PANC-1 cells assessed as late apoptotic cells at 5 uM incubated for 48 hrs by Annexin V-FITC/PI staining based flow cytometry (reference value: 3.87 %); format: functional
PANC-1 [26] = assay: Induction of apoptosis in human PANC-1 cells assessed as necrotic cells at 2.5 uM incubated for 48 hrs by Annexin V-FITC/PI staining based flow cytometry (reference value: 3.09 %); format: functional
[27] = Toxicity in BALB/c mouse xenografted with human PANC-1 cells assessed as animal mortality at 40 mg/kg, ip for 4 weeks administered for 5 days consecutively and 2 days without treatment on every week in presence of JQ1; format: organism-based; details: in vivo, 672 h
PANC-1 [28] = assay: Induction of cell cycle arrest in human PANC-1 cells assessed as accumulation at S phase at 0.6 uM incubated for 24 hrs by PI staining based flow cytometry (reference value: 38.94 %); format: functional
PANC-1 [29] = assay: Antitumor activity against human PANC-1 cells xenografted in BALB/c mouse at 40 mg/kg, ip for 4 weeks administered for 5 days consecutively and 2 days without treatment on every week in presence of JQ1 relative to control; format: functional; details: PANC-1, 672 h, read-out: TGI
PANC-1 [30] = assay: Induction of cell cycle arrest in human PANC-1 cells assessed as accumulation at S phase at 2.5 uM incubated for 24 hrs by PI staining based flow cytometry (reference value: 38.94 %); format: functional
[31] = Toxicity in BALB/c mouse xenografted with human PANC-1 cells assessed as pathological changes in heart at 40 mg/kg, ip for 4 weeks administered for 5 days consecutively and 2 days without treatment on every week in presence of JQ1 by H and E staining based analysis; format: organism-based; details: in vivo, 672 h

Row | Structure (SMILES) | viability at 5 µM (PANC-1 [1]) [%] | Activity [2] | Activity (PANC-1 [3]) [%] | Activity (PANC-1 [4]) [%] | Activity (PANC-1 [5]) [%] | Activity (PANC-1 [6]) | Activity (PANC-1 [7]) | Activity [8] | Activity (PANC-1 [9]) | inhibition [10] | Activity (PANC-1 [11]) [%] | Activity (PANC-1 [12]) [%] | Activity (PANC-1 [13]) [%] | Activity (PANC-1 [14]) [%] | Activity (PANC-1 [15]) [%] | Activity (PANC-1 [16]) [%] | Activity [17] | Activity (PANC-1 [18]) [%] | Activity [19] | Activity [20] | other results
1 | O=C1CCC(N2C(=O)c3cccc(NC(=O)CNCCCCCCCCCCC(=O)N4CCN(C(=O)c5cc(Cc6n[nH]c(=O)c7ccccc67)ccc5F)CC4)c3C2=O)C(=O)N1 (configuration not stated) | 86.7 | Non-toxic | 5.33 | 4.38 | 10.52 | Active | Active | Non-toxic | Active | Active | 3.9 | 50.25 | 4.28 | 3.8 | 2.74 | 3.52 | Non-toxic | 22.93 | Non-toxic | Non-toxic | Activity (PANC-1 [21]): 3.71%; Activity (PANC-1 [22]): 8.77%; Activity [23]: Non-toxic; Activity (PANC-1 [24]): 11.34%; Activity (PANC-1 [25]): 4.37%; Activity (PANC-1 [26]): 2.55%; Activity [27]: Non-toxic; Activity (PANC-1 [28]): 44.14%; inhibition in vivo at 40 mg/kg (PANC-1 [29]): ≤ 98.5%; Activity (PANC-1 [30]): 43.26%; Activity [31]: Non-toxic
2 | O=C(c1cc(Cc2n[nH]c(=O)c3ccccc23)ccc1F)N1CCN(C(=O)C2CC2)CC1 [OLAPARIB] | 88.2 | Non-toxic | 5.35 | 3.98 | 10.68 | Active | Active | Non-toxic | Active | Active | 2.25 | 58.42 | 2.91 | 2.88 | 4.05 | 3.23 | Non-toxic | 15.74 | Non-toxic | Non-toxic | Activity (PANC-1 [21]): 3.98%; Activity (PANC-1 [22]): 5.44%; Activity [23]: Non-toxic; Activity (PANC-1 [24]): 12.41%; Activity (PANC-1 [25]): 4.7%; Activity (PANC-1 [26]): 3.45%; Activity [27]: Non-toxic; Activity (PANC-1 [28]): 42.54%; inhibition in vivo at 40 mg/kg (PANC-1 [29]): 80.7%; Activity (PANC-1 [30]): 41.49%; Activity [31]: Non-toxic

Source: ChEMBL document CHEMBL6096630, “Enhancing therapeutic efficacy in homologous recombination-proficient pancreatic cancer via the combination of PARP1-PROTAC and a BRD4 inhibitor” (Bioorg Med Chem, 2024)
